Patent US11407765B2, “Tetracyclic heteroaryl compounds” (AstraZeneca AB, priority 2018, dated 2022)
Read-outs that look alike come from different tables or passages of the source.

Tests used:
KRasG12C [1] = target: T1, KRasG12C (Homo sapiens, UniProt P01116, G12C); assay: KRasG12C functional assay (HTRF, SOS-mediated nucleotide exchange / Raf RBD binding); format: biochemical; conditions: 4 hrs incubation with GDP loaded biotinylated KRasG12C, single experiment or average of two or more
T1 construct: biotin (biotinylated); made in house
Procedure: KRasG12C Functional Assay
All enzyme and substrate solutions were prepared in assay buffer containing 20 mM HEPES (pH 7.5), 5 mM MgCl2, 150 mM NaCl, and 0.01% Tween 20. […] In a separate mix 20 nM GST-Raf Ras binding domain (GST-Raf RBD, purified in house) and 4 μg/ml anti-GST XL665 antibody (Cisbio) was prepared in assay buffer containing 50 mM Potassium Fluoride and 0.05 mg/ml BSA and equilibrated for 4 hours before adding 0.6 μM Guanosine 5′-[γ-thio]triphosphate (GTPγS, Sigma) and 0.08 μM SOS (purified in house). 5 μl of the GST-RAF RBD mix was then dispensed into each well of the assay plate. […] This is detected simultaneously via the specific binding interaction between active GTPγS KRas^G12C with GST-Raf RBD which brings the europium and XL665 into close proximity enabling an increased FRET signal to be detected on a Pherastar (BMG) plate reader equipped with the HTRF filter module. […] IC50 values were calculated from normalised dose-response response FRET data curve fitted in Genedata screener (Basel, Switzerland).

KRasG12C [2] = target: T1, KRasG12C; assay: KRasG12C mass spectrometry adducting assay; format: binding; conditions: 10 μM test compound, 4 μM GDP loaded KRasG12C, 4 hours
Procedure: KRasG12C Mass Spectrometry Adducting Assay
Enzyme solutions were prepared in assay buffer containing 20 mM HEPES (pH 7.5), 5 mM MgCl2, and 150 mM NaCl. […] The plate was sealed before reading on a Xevo G2 QTOF (Waters) and Acquity LC system (Waters). 10 μl of sample was injected onto a Xbridge BEH300; C4; 3.5 um; 2.1×50 mm column (Waters) running a 3 minute gradient. Blank samples were run in between each test sample.
Data was analysed in Mass Lynx software (Waters), the Total ion count (TIC) trace was used and the eluted protein peak data combined. Using the combined spectrum the data was deconvoluted using MaxEnt1 method. The peak area for apo-protein KRas^G12C (APO) and KRAS+relative cmpd mass (adduct) were measured, and a percentage adduct was calculated using the following calculation: Percent adduct=100*(area of adduct peak/(sum of APO+adduct peaks)

[3] = Caco AB cell permeability; format: in vitro ADME; conditions: human, Caco-2; A to B
[4] = In vivo pharmacokinetics in rat (oral bioavailability, clearance)
Half life in rat blood = format: in vitro ADME
[5] = read-out: KRasG12C functional assay IC50 value
[6] = KRasG12C functional assay IC50 value

T1 sequence (P01116 1-188 isoform P01116-2 G12C): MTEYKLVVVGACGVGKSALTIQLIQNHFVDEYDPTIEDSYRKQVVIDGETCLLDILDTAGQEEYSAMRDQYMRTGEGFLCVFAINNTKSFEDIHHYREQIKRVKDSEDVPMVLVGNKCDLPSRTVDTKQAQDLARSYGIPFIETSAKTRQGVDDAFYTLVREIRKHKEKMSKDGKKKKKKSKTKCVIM

SMILES | IC50 (KRasG12C [1]; [5]) [µM] | KRasG12C M. S. Binding Mean adduct % (KRasG12C [2]) [%] | other results
C=CC(=O)N1C[C@H]2COc3c(Cl)c(-c4c(O)cccc4F)c(F)c4ncnc(c34)N2C[C@H]1C (single isomer, unassigned) [Example 4] | 0.05 | 96 | Papp A→B [3]: 580 nm/s; oral bioavailability [4]: 31%; clearance ([4]; in vivo): 1.74 L/h/kg
C=CC(=O)N1C[C@@H]2CCOc3c(Cl)c(-c4c(O)cccc4F)c(F)c4ncnc(c34)N2C[C@H]1C (single isomer, unassigned) [Example 39] |  |  | IC50 (KRasG12C [1]; [6]): 0.003 µM; Papp A→B [3]: 720 nm/s; clearance (Cl) [4]: 1.32 L/h/kg; oral bioavailability [4]: 75%
C=CC(=O)N1C[C@@H]2CCOc3c(Cl)c(-c4c(O)cccc4F)c(F)c4ncnc(c34)N2C[C@@H]1C (single isomer, unassigned) [Example 42] |  | 95.528 | IC50 (KRasG12C [1]; [6]): 0.111 µM
C=CC(=O)N1C[C@H]2COc3c(Cl)c(-c4c(O)cccc4F)c(F)c4ncnc(c34)N2C[C@@H]1C [Example 3, 1-[(8aS,11S)-6-Chloro-4-fluoro-5-(2-fluoro-6-hydroxyphenyl)-11-methyl-8a,9,11,12-tetrahydropyrazino[2′,1′:3,4][1,4]oxazepino[5,6,7-de]quinazolin-10(8H)-yl]prop-2-en-1-one] | 0.113 | 54 | 
C=CC(=O)N1CCN2c3ncnc4c(F)c(-c5cccc6cc[nH]c(=O)c56)c(Cl)c(c34)OC[C@@H]2C1 [Example 10, 8-[(8aS)-6-Chloro-4-fluoro-10-(prop-2-enoyl)-8,8a,9,10,11,12-hexahydropyrazino[2′,1′:3,4][1,4]oxazepino[5,6,7-de]quinazolin-5-yl]isoquinolin-1(2H)-one] | 0.068 | 94 | 
C=CC(=O)N1CCN2c3ncnc4c(F)c(-c5c(O)cccc5F)c(Cl)c(c34)OC[C@@H]2C1 [R^5 desmethyl compound, 1-((8aS)-6-chloro-4-fluoro-5-(2-fluoro-6-hydroxyphenyl)-8a,9,11,12-tetrahydropyrazino[2′,1′:3,4] [1,4]oxazepino[5,6,7-de]quinazolin-10(8H)-yl)prop-2-en-1-one, reference compound] |  |  | half-life (Half life in rat blood): 12 min; Papp A→B [3]: 58 nm/s; clearance ([4]; in vivo): 57.7 L/h/kg; bioavailability ([4]; in vivo, po): 0%

Further lines, with some results ahead:

IC50 (KRasG12C [1]; [5]) [µM] | KRasG12C M. S. Binding Mean adduct % (KRasG12C [2]) [%] | SMILES | other results
0.239 | 25 | C=CC(=O)N1CCN2c3ncnc4c(F)c(-c5c(C)ccc6[nH]nnc56)c(Cl)c(c34)OC[C@@H]2C1 (single isomer, unassigned) [Example 18] | 
0.024 | 94 | C=CC(=O)N1CCN2c3ncnc4c(F)c(-c5c(C)ccc6[nH]nnc56)c(Cl)c(c34)OC[C@@H]2C1 (single isomer, unassigned) [Example 19] | 
0.029 | 100 | C=CC(=O)N1CCN2c3ncnc4c(F)c(-c5c(F)ccc6[nH]cnc56)c(Cl)c(c34)OC[C@@H]2C1 (single isomer, unassigned) [Example 20] | 
0.03 | 95 | C=CC(=O)N1CCN2c3ncnc4c(F)c(-c5c(F)ccc6[nH]ncc56)c(Cl)c(c34)OC[C@@H]2C1 (single isomer, unassigned) [Example 22] | 
0.097 | 99 | C=CC(=O)N1CCN2c3ncnc4c(F)c(-c5c(F)ccc6c5ncn6C)c(Cl)c(c34)OC[C@@H]2C1 (single isomer, unassigned) [Example 24] | 
0.051 | 100 | C=CC(=O)N1CCN2c3ncnc4c(F)c(-c5c(F)ccc6[nH]nnc56)c(Cl)c(c34)OC[C@@H]2C1 (single isomer, unassigned) [Example 26] | 
0.005 | 92 | C=CC(=O)N1CCN2c3ncnc4c(F)c(-c5c(F)ccc6cc[nH]c(=O)c56)c(Cl)c(c34)OC[C@@H]2C1 (single isomer, unassigned) [Example 28] | 
0.17 | 94 | Cc1ccc2[nH]ncc2c1-c1c(Cl)c2c3c(ncnc3c1F)N1CCN(C(=O)/C=C/CN(C)C)C[C@H]1CO2 (single isomer, unassigned) [Example 30] | 
0.201 | 96 | C=CC(=O)N1CCN2c3ncnc4c(F)c(-c5n[nH]c6ccccc56)c(Cl)c(c34)OC[C@@H]2C1 [Example 11, 1-[(8aS)-6-Chloro-4-fluoro-5-(1H-indazol-3-yl)-8a,9,11,12-tetrahydropyrazino[2′,1′:3,4][1,4]oxazepino[5,6,7-de]quinazolin-10(8H)-yl]prop-2-en-1-one] | 
